Measurements as given in PubChem BioAssay AID248 (DTP/NCI, 2004).
Where “and” joins values, the source holds several entries; their conditions need not be identical. Identical values can stand only once. Toxic doses and inconclusive results are not listed. No stated cut-off is given here; in the data, active means T/C of 150% or more; inactive means T/C below 125%.

Tested on: L1210 leukemia ip in BDF1 mice, survival T/C
Assay: NCI In Vivo Anticancer Drug Screen. Data for tumor model L1210 Leukemia (intraperitoneal) in B6D2F1 (BDF1) mice
Details: endpoint: mean survival time, higher = longer survival
Procedure, shortened: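 Value reflects the ratio of survival in compound-treated mice to survival in vehicle-treated controls, with both groups carrying the same transplanted tumor.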

[1] = dose: 100.0 mg/kg/injection, schedule: Q04DX003 (ip), vehicle: Klucel (hydroxypropylcellulose) (HPC)
[2] = dose: 200.0 mg/kg/injection, schedule: Q04DX003 (ip), vehicle: Klucel (hydroxypropylcellulose) (HPC)
[3] = dose: 400.0 mg/kg/injection, schedule: Q04DX003 (ip), vehicle: Klucel (hydroxypropylcellulose) (HPC)
[4] = dose: 50.0 mg/kg/injection, schedule: Q01DX009 (ip), vehicle: Klucel (hydroxypropylcellulose) (HPC)
[5] = dose: 100.0 mg/kg/injection, schedule: Q01DX001 (ip), vehicle: saline
[6] = dose: 100.0 mg/kg/injection, schedule: Q01DX009 (ip), vehicle: Klucel (hydroxypropylcellulose) (HPC)
[7] = dose: 100.0 mg/kg/injection, schedule: Q04DX002 (ip), vehicle: Klucel (hydroxypropylcellulose) (HPC)
[8] = dose: 200.0 mg/kg/injection, schedule: Q04DX002 (ip), vehicle: Klucel (hydroxypropylcellulose) (HPC)
[9] = dose: 100.0 mg/kg/injection, schedule: Q01DX009 (ip), vehicle: saline with Tween-80
[10] = dose: 200.0 mg/kg/injection, schedule: Q01DX009 (ip), vehicle: saline with Tween-80
[11] = dose: 400.0 mg/kg/injection, schedule: Q01DX009 (ip), vehicle: saline with Tween-80
[12] = dose: 200.0 mg/kg/injection, schedule: Q01DX001 (ip), vehicle: saline
[13] = dose: 400.0 mg/kg/injection, schedule: Q01DX001 (ip), vehicle: saline
[14] = dose: 200.0 mg/kg/injection, schedule: Q01DX009 (ip), vehicle: Klucel (hydroxypropylcellulose) (HPC)

Measured: T/C

O=C(OCCCCCOC(=O)c1ccccc1O)c1ccccc1O
inactive: dose: 100.0 mg/kg/injection, schedule: Q01DX001 (ip), vehicle: other 91 % of control | [1] 92 % of control | dose: 200.0 mg/kg/injection, schedule: Q01DX001 (ip), vehicle: other 88 % of control | [2] 91 % of control | [3] 89 % of control

OCC(O)COc1ccc(OCc2ccccc2)cc1 (configuration not stated)
inactive: dose: 12.5 mg/kg/injection, schedule: Q01DX009 (ip), vehicle: Klucel (hydroxypropylcellulose) (HPC) 94 % of control | dose: 25.0 mg/kg/injection, schedule: Q01DX009 (ip), vehicle: Klucel (hydroxypropylcellulose) (HPC) 102 % of control | [4] 93 % of control and 87 % of control

COC(=O)/C=C/c1ccc(OC)c(OC)c1
inactive: [1] 93 % of control | [2] 95 % of control | [3] 102 % of control

CCC(c1ccc(OC)cc1)C(CC)c1ccc(OCCN2CCCC2)cc1 (configuration not stated)
inactive: dose: 12.5 mg/kg/injection, schedule: Q01DX001 (ip), vehicle: saline 94 % of control | dose: 25.0 mg/kg/injection, schedule: Q01DX001 (ip), vehicle: saline 94 % of control | dose: 50.0 mg/kg/injection, schedule: Q01DX001 (ip), vehicle: saline 95 % of control | [5] 97 % of control

O=C(O)C(=C(c1ccccc1)c1ccccc1)c1cccc2ccccc12
inactive: dose: 50.0 mg/kg/injection, schedule: Q04DX002 (ip), vehicle: Klucel (hydroxypropylcellulose) (HPC) 98 % of control | [6] 101 % of control | [7] 100 % of control | [8] 100 % of control

Cc1ccc(NP(N)(=O)Nc2ccc(C)cc2)cc1
inactive: dose: 50.0 mg/kg/injection, schedule: Q01DX001 (ip), vehicle: alcohol 102 % of control | dose: 100.0 mg/kg/injection, schedule: Q01DX001 (ip), vehicle: alcohol 102 % of control | dose: 200.0 mg/kg/injection, schedule: Q01DX001 (ip), vehicle: alcohol 108 % of control | dose: 400.0 mg/kg/injection, schedule: Q01DX001 (ip), vehicle: alcohol 96 % of control

COc1cc(C=Nc2ccccc2)ccc1OC(=O)c1ccccc1
inactive: dose: 100.0 mg/kg/injection, schedule: Q04DX002 (ip), vehicle: gum acacia 103 % of control | dose: 200.0 mg/kg/injection, schedule: Q04DX002 (ip), vehicle: gum acacia 95 % of control | dose: 400.0 mg/kg/injection, schedule: Q04DX002 (ip), vehicle: gum acacia 88 % of control

COc1ccc2nc(NCN3C(=O)c4ccccc4C3=O)sc2c1
inactive: [9] 96 % of control | dose: 100.0 mg/kg/injection, schedule: Q04DX003 (ip), vehicle: acetone 88 % of control | [10] 95 % of control | dose: 200.0 mg/kg/injection, schedule: Q04DX003 (ip), vehicle: acetone 88 % of control | [11] 93 % of control | dose: 400.0 mg/kg/injection, schedule: Q04DX003 (ip), vehicle: acetone 90 % of control

O=[N+]([O-])c1ccc2c(c1)-c1ccccc1/C2=C1\c2ccccc2-c2cc([N+](=O)[O-])ccc21
inactive: dose: 100.0 mg/kg/injection, schedule: Q01DX005 (ip), vehicle: Klucel (hydroxypropylcellulose) (HPC) 105 % of control | [7] 90 % of control | dose: 200.0 mg/kg/injection, schedule: Q01DX005 (ip), vehicle: Klucel (hydroxypropylcellulose) (HPC) 91 % of control | [8] 104 % of control | dose: 400.0 mg/kg/injection, schedule: Q01DX005 (ip), vehicle: Klucel (hydroxypropylcellulose) (HPC) 91 % of control | dose: 400.0 mg/kg/injection, schedule: Q04DX002 (ip), vehicle: Klucel (hydroxypropylcellulose) (HPC) 96 % of control

NC(CS)C(=O)O (configuration not stated)
inactive: [5] 105 % of control | [12] 92 % of control | dose: 250.0 mg/kg/injection, schedule: Q01DX Z (ip), vehicle: other 91 % of control | dose: 250.0 mg/kg/injection, schedule: Q01DX Z (ip), vehicle: saline 102 % of control | [13] 97 % of control | dose: 500.0 mg/kg/injection, schedule: Q01DX Z (ip), vehicle: saline 94 % of control | dose: 1000.0 mg/kg/injection, schedule: Q01DX Z (ip), vehicle: saline 112 % of control

COC(=O)C(Cc1ccc(N(CCCl)CCCl)cc1)N=NNc1[nH]ncc1C(N)=O (configuration not stated)
inactive: dose: 19.0 mg/kg/injection, schedule: Q01DX001 (ip), vehicle: other 106 % of control | dose: 38.0 mg/kg/injection, schedule: Q01DX001 (ip), vehicle: other 124 % of control | dose: 75.0 mg/kg/injection, schedule: Q01DX001 (ip), vehicle: other 100 % of control | dose: 300.0 mg/kg/injection, schedule: Q01DX001 (ip), vehicle: other 117 % of control
active: dose: 150.0 mg/kg/injection, schedule: Q01DX001 (ip), vehicle: other 155 % of control

CN(Cc1ccccc1)C(Cc1c[nH]c2ccccc12)C(=O)O (configuration not stated)
inactive: dose: 25.0 mg/kg/injection, schedule: Q04DX003 (ip), vehicle: saline 111 % of control | dose: 50.0 mg/kg/injection, schedule: Q04DX003 (ip), vehicle: saline 108 % of control | [5] 100 % of control | dose: 100.0 mg/kg/injection, schedule: Q04DX003 (ip), vehicle: saline 94 % of control | dose: 150.0 mg/kg/injection, schedule: Q04DX003 (ip), vehicle: acetone 91 % of control | dose: 225.0 mg/kg/injection, schedule: Q04DX003 (ip), vehicle: acetone 109 % of control | dose: 335.0 mg/kg/injection, schedule: Q04DX003 (ip), vehicle: acetone 100 % of control

COc1ccc2c(c1)sc1ncnc(N)c12
inactive: [4] 105 % of control | [6] 105 % of control | [14] 101 % of control

CN(N=O)C(=O)NNC(=O)N(C)N=O
inactive: dose: 6.25 mg/kg/injection, schedule: Q01DX Z (ip), vehicle: carboxymethylcellulose (CMC) 103 % of control | dose: 50.0 mg/kg/injection, schedule: Q01DX Z (ip), vehicle: carboxymethylcellulose (CMC) 89 % of control
active: dose: 20.0 mg/kg/injection, schedule: Q01DX Z (ip), vehicle: carboxymethylcellulose (CMC) 152 % of control

Cc1ccc(S(=O)(=O)Nc2ccc3ncccc3c2)cc1
inactive: [5] 103 % of control | [12] 102 % of control | [13] 96 % of control

CC(=O)c1ccc(C)c([N+](=O)[O-])c1
inactive: dose: 50.0 mg/kg/injection, schedule: Q01DX001 (ip), vehicle: carboxymethylcellulose (CMC) 98 % of control | dose: 100.0 mg/kg/injection, schedule: Q01DX001 (ip), vehicle: carboxymethylcellulose (CMC) 91 % of control | dose: 200.0 mg/kg/injection, schedule: Q01DX001 (ip), vehicle: carboxymethylcellulose (CMC) 107 % of control | dose: 400.0 mg/kg/injection, schedule: Q01DX001 (ip), vehicle: carboxymethylcellulose (CMC) 91 % of control

O=C(c1ccccc1)C1CSS(=O)(=O)C1c1ccccc1 (configuration not stated)
inactive: dose: 100.0 mg/kg/injection, schedule: Q01DX001 (ip), vehicle: Klucel (hydroxypropylcellulose) (HPC) 97 % of control | dose: 200.0 mg/kg/injection, schedule: Q01DX001 (ip), vehicle: Klucel (hydroxypropylcellulose) (HPC) 99 % of control | dose: 400.0 mg/kg/injection, schedule: Q01DX001 (ip), vehicle: Klucel (hydroxypropylcellulose) (HPC) 92 % of control

O=C(NC(CS)C(=O)O)OCc1ccccc1 (configuration not stated)
inactive: dose: 25.0 mg/kg/injection, schedule: Q04DX003 (ip), vehicle: Klucel (hydroxypropylcellulose) (HPC) 97 % of control | [4] 101 % of control | dose: 50.0 mg/kg/injection, schedule: Q04DX003 (ip), vehicle: Klucel (hydroxypropylcellulose) (HPC) 98 % of control | [6] 101 % of control | [1] 106 % of control and 113 % of control | [14] 98 % of control

CCO/C=C/C(=O)NC(=O)OCC
inactive: [9] 95 % of control | dose: 100.0 mg/kg/injection, schedule: Q04DX003 (ip), vehicle: saline with Tween-80 97 % of control | [10] 91 % of control | dose: 200.0 mg/kg/injection, schedule: Q04DX003 (ip), vehicle: saline with Tween-80 100 % of control | [11] 101 % of control | dose: 400.0 mg/kg/injection, schedule: Q04DX003 (ip), vehicle: saline with Tween-80 94 % of control

OC(CSc1ccccc1)(c1ccccc1)c1ccccc1
inactive: dose: 56.3 mg/kg/injection, schedule: Q03DX002 (ip), vehicle: saline with Tween-80 121 % of control | dose: 112.0 mg/kg/injection, schedule: Q03DX002 (ip), vehicle: saline with Tween-80 102 % of control
